These compounds were tested against T1, RORγ (Homo sapiens, UniProt P51449) (assay: RORγ GAL4 reporter gene assay). Conditions: inhibition of RORγ activity, GAL4-RORγ-LBD luciferase reporter in 293FT cells, overnight incubation; read-out: mean pIC50 (converted).
T1 construct: expressed in transfected cells; host or cells: 293FT cells (Invitrogen), expression vector pFN26A (Promega)
T1 sequence (P51449 269-508 limits assumed): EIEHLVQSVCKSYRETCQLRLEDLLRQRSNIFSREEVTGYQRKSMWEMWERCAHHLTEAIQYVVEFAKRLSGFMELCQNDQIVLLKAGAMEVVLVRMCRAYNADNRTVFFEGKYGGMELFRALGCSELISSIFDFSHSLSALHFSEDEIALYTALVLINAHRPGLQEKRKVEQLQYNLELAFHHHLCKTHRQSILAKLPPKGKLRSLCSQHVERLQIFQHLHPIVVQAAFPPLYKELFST
Type: cell-based
Outline: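 293FT cells were transiently co-transfected with GAL4-DBD–RORγ-LBD (or GAL4-VP16 control) and a 9×UAS luc2P reporter, then plated at 60,000 cells/well. Compound was added at final 0.2% DMSO for 16-24 h at 37 °C, and inhibition was measured by firefly luciferase luminescence.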

IC50 | SMILES
≤ 100 nM | Cc1ccc(N(C(=O)c2ccc(NC(=O)Cc3ccc(S(=O)(=O)NC4CC4)cc3)cc2)C(C)(C)C2CCCO2)cc1 (centres unmarked) [Example 132, 4-{2-[4-(cyclopropylsulfamoyl)phenyl]acetamido}-N-(4-methylphenyl)-N-[2-(oxolan-2-yl)propan-2-yl]benzamide]
≤ 100 nM | Cc1ccc(N(C(=O)c2ccc(NC(=O)Cc3ccc(S(=O)(=O)CC4CC4)cc3)cc2)C(C)(C)C2CCCO2)cc1 (centres unmarked) [Example 133, 4-[2-(4-cyclopropylmethanesulfonylphenyl)acetamido]-N-(4-methylphenyl)-N-[2-(oxolan-2-yl)propan-2-yl]benzamide]
≤ 10 nM | CC(C)(C)N(C(=O)c1ccc(NC(=O)Cc2ccc(S(=O)(=O)CC3CC3)cc2)c(F)c1)c1ccccc1 [Example 134, N-tert-butyl-4-[2-(4-cyclopropylmethanesulfonylphenyl)acetamido]-3-fluoro-N-phenylbenzamide]
≤ 100 nM | CC(C)(C1CCCO1)N(C(=O)c1ccc(NC(=O)Cc2ccc(S(=O)(=O)CC3CC3)cc2)cc1)c1ccccc1 (centres unmarked) [Example 135, 4-[2-(4-cyclopropylmethanesulfonylphenyl)acetamido]-N-[2-(oxolan-2-yl)propan-2-yl]-N-phenylbenzamide]
≤ 100 nM | O=C(Cc1ccc(S(=O)(=O)CC2CC2)cc1)Nc1ccc(C(=O)N(c2ccccn2)C2CCOC2)cc1 (centres unmarked) [Example 136, 4-[2-(4-cyclopropylmethanesulfonylphenyl)acetamido]-N-(oxolan-3-yl)-N-(pyridin-2-yl)benzamide]
≤ 100 nM | O=C(Cc1ccc(S(=O)(=O)CC2CC2)cc1)Nc1ccc(C(=O)N(c2ccccn2)C2CC2)cc1 [Example 137, N-cyclopropyl-4-[2-(4-cyclopropylmethanesulfonylphenyl)acetamido]-N-(pyridin-2-yl)benzamide]
≤ 100 nM | CC(C)(CO)N(C(=O)c1ccc(NC(=O)Cc2ccc(S(=O)(=O)CC3CC3)cc2)cc1)c1ccccc1 [Example 138, 4-[2-(4-cyclopropylmethanesulfonylphenyl)acetamido]-N-(1-hydroxy-2-methylpropan-2-yl)-N-phenylbenzamide]
≤ 10 nM | O=C(Cc1ccc(S(=O)(=O)CC2CC2)cc1)Nc1ccc(C(=O)N(c2ccccn2)C2CCC2)cc1 [Example 139, N-cyclobutyl-4-[2-(4-cyclopropylmethanesulfonylphenyl)acetamido]-N-(pyridin-2-yl)benzamide]
≤ 10 nM | O=C(Cc1ccc(S(=O)(=O)CC2CC2)cc1)Nc1ccc(C(=O)N(c2ccccc2)C2CC2)cc1 [Example 140, N-cyclopropyl-4-[2-(4-cyclopropylmethanesulfonylphenyl)acetamido]-N-phenylbenzamide]
≤ 10 nM | O=C(Cc1ccc(S(=O)(=O)CC2CC2)cc1)Nc1ccc(C(=O)N(c2ccccc2)C2CCC2)cc1 [Example 141, N-cyclobutyl-4-[2-(4-cyclopropylmethanesulfonylphenyl)acetamido]-N-phenylbenzamide]
≤ 10 nM | CC1(N(C(=O)c2ccc(NC(=O)Cc3ccc(S(=O)(=O)CC4CC4)cc3)cc2)c2ccccc2)CC1 [Example 142, 4-[2-(4-cyclopropylmethanesulfonylphenyl)acetamido]-N-(1-methylcyclopropyl)-N-phenylbenzamide]
≤ 100 nM | O=C(Cc1ccc(S(=O)(=O)CC2CC2)cc1)Nc1ccc(C(=O)N(c2cccnc2)C2CC2)cc1 [Example 143, N-cyclopropyl-4-[2-(4-cyclopropylmethanesulfonylphenyl)acetamido]-N-(pyridin-3-yl)benzamide]
≤ 10 nM | O=C(Cc1ccc(S(=O)(=O)CC2CC2)cc1)Nc1ccc(C(=O)N(c2ccccc2)C2CC(F)(F)C2)cc1 [Example 144, 4-[2-(4-cyclopropylmethanesulfonylphenyl)acetamido]-N-(3,3-difluorocyclobutyl)-N-phenylbenzamide]
≤ 10 nM | COC(=O)C(C)(C)N(C(=O)c1ccc(NC(=O)Cc2ccc(S(=O)(=O)CC3CC3)cc2)cc1)c1ccccc1 [Example 145, methyl 2-(1-{4-[2-(4-cyclopropylmethanesulfonylphenyl)acetamido]phenyl}-N-phenylformamido)-2-methylpropanoate]
≤ 10 nM | CC(N(C(=O)c1ccc(NC(=O)Cc2ccc(S(=O)(=O)CC3CC3)cc2)cc1)c1ccccc1)C(F)(F)F (centres unmarked) [Example 146, 4-[2-(4-cyclopropylmethanesulfonylphenyl)acetamido]-N-phenyl-N-(1,1,1-trifluoropropan-2-yl)benzamide]
≤ 1000 nM | O=C(Cc1ccc(S(=O)(=O)CC2CC2)cc1)Nc1ccc(C(=O)Nc2c(Cl)cccc2Cl)cc1 [Example 147, 4-[2-(4-cyclopropylmethanesulfonylphenyl)acetamido]-N-(2,6-dichlorophenyl)benzamide]

IC50 | SMILES
≤ 100 nM | CC(N(C(=O)c1ccc(NC(=O)Cc2ccc(S(=O)(=O)NC3CC3)cc2)cc1)c1ccccc1)C(F)(F)F (centres unmarked) [Example 148, 4-{2-[4-(cyclopropylsulfamoyl)phenyl]acetamido}-N-phenyl-N-(1,1,1-trifluoropropan-2-yl)benzamide]
≤ 10 nM | O=C(Cc1ccc(S(=O)(=O)CC2CC2)cc1)Nc1ccc(C(=O)N(c2ccccc2)C2COC2)cc1 [Example 149, 4-[2-(4-cyclopropylmethanesulfonylphenyl)acetamido]-N-(oxetan-3-yl)-N-phenylbenzamide]
≤ 100 nM | Cc1ccc(N(C(=O)c2ccc(NC(=O)Cc3ccc(S(=O)(=O)CC4CC4)cc3)cc2)C(C)(C)CO)cc1 [Example 153, 4-[2-(4-cyclopropylmethanesulfonylphenyl)acetamido]-N-(1-hydroxy-2-methylpropan-2-yl)-N-(4-methylphenyl)benzamide]
≤ 100 nM | Cc1ccc(N(C(=O)c2ccc(NC(=O)Cc3ccc(S(=O)(=O)NC4CC4)cc3)cc2)C(C)(C)CO)cc1 [Example 154, 4-{2-[4-(cyclopropylsulfamoyl)phenyl]acetamido}-N-(1-hydroxy-2-methylpropan-2-yl)-N-(4-methylphenyl)benzamide]
≤ 10 nM | O=C(Cc1ccc(S(=O)(=O)CC2CC2)nc1)Nc1ccc(C(=O)N(CC(F)(F)F)c2ccccc2)cc1 [Example 155, 4-[2-(6-cyclopropylmethanesulfonylpyridin-3-yl)acetamido]-N-phenyl-N-(2,2,2-trifluoroethyl)benzamide]
≤ 100 nM | CCN(C(=O)c1ccc(NC(=O)Cc2ccc(S(=O)(=O)CC3CC3)nc2)cc1F)c1ccccc1 [Example 156, 4-[2-(6-cyclopropylmethanesulfonylpyridin-3-yl)acetamido]-N-ethyl-2-fluoro-N-phenylbenzamide]
≤ 100 nM | CCN(C(=O)c1ccc(NC(=O)Cc2ccc(S(=O)(=O)CC3CC3)nc2)cc1Cl)c1ccccc1 [Example 157, 2-chloro-4-[2-(6-cyclopropylmethanesulfonylpyridin-3-yl)acetamido]-N-ethyl-N-phenylbenzamide]
≤ 10 nM | CC(C)(C)N(C(=O)c1ccc(NC(=O)Cc2ccc(S(=O)(=O)CC3CC3)nc2)cc1)c1ccccc1 [Example 158, N-tert-butyl-4-[2-(6-cyclopropylmethanesulfonylpyridin-3-yl)acetamido]-N-phenylbenzamide]
≤ 10 nM | CC(C)(C)N(C(=O)c1ccc(NC(=O)Cc2ccc(S(=O)(=O)CC3CC3)nc2)c(F)c1)c1ccccc1 [Example 159, N-tert-butyl-4-[2-(6-cyclopropylmethanesulfonylpyridin-3-yl)acetamido]-3-fluoro-N-phenylbenzamide]
≤ 100 nM | CC(C)(C1CCCO1)N(C(=O)c1ccc(NC(=O)Cc2ccc(S(=O)(=O)CC3CC3)nc2)cc1)c1ccccc1 (centres unmarked) [Example 160, 4-[2-(6-cyclopropylmethanesulfonylpyridin-3-yl)acetamido]-N-[2-(oxolan-2-yl)propan-2-yl]-N-phenylbenzamide]
≤ 100 nM | Cc1ccc(N(C(=O)c2ccc(NC(=O)Cc3ccc(S(=O)(=O)CC4CC4)nc3)cc2)C(C)(C)CO)cc1 [Example 161, 4-[2-(6-cyclopropylmethanesulfonylpyridin-3-yl)acetamido]-N-(1-hydroxy-2-methylpropan-2-yl)-N-(4-methylphenyl)benzamide]
≤ 100 nM | CCN(C(=O)c1ccc(NC(=O)Cc2ccc(S(=O)(=O)CC3CC3)cc2)cc1C)c1ccccc1 [Example 162, 4-[2-(4-cyclopropylmethanesulfonylphenyl)acetamido]-N-ethyl-2-methyl-N-phenylbenzamide]
≤ 10 nM | Cc1cc(NC(=O)Cc2ccc(S(=O)(=O)CC3CC3)cc2)ccc1C(=O)N(C)c1ccccc1C [Example 163, 4-[2-(4-cyclopropylmethanesulfonylphenyl)acetamido]-N,2-dimethyl-N-(2-methylphenyl)benzamide]
≤ 10 nM | CCN(C(=O)c1ccc(NC(=O)Cc2ccc(S(=O)(=O)CC3CC3)cc2)cc1C)c1cccc(C)c1C [Example 164, 4-[2-(4-cyclopropylmethanesulfonylphenyl)acetamido]-N-(2,3-dimethylphenyl)-N-ethyl-2-methylbenzamide]
≤ 100 nM | Cc1cc(NC(=O)Cc2ccc(S(=O)(=O)CC3CC3)cc2)ccc1C(=O)N(C)c1ccccc1F [Example 165, 4-[2-(4-cyclopropylmethanesulfonylphenyl)acetamido]-N-(2-fluorophenyl)-N,2-dimethylbenzamide]
≤ 10 nM | CCN(C(=O)c1ccc(NC(=O)Cc2ccc(S(=O)(=O)CC3CC3)cc2)cc1C)c1ccccc1Cl [Example 166, N-(2-chlorophenyl)-4-[2-(4-cyclopropylmethanesulfonylphenyl)acetamido]-N-ethyl-2-methylbenzamide]

From patent publication US10315996B2, “ROR gamma (RORγ) modulators” (LEAD PHARMA HOLDING B.V., priority 2015, dated 2019)
